Laboratory results taken from PubChem BioAssay (NCI).
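These data come from cells grown in 96-well plates and exposed to compound for 48 hours at five concentrations. TGI: concentration producing complete growth inhibition.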

Assays:
Assay in all cases: growth of human tumour cells (NCI), 48 h
[1] = test system: 786-0 renal
[2] = test system: A498 renal
[3] = test system: A549 NSCLC
[4] = test system: BT-549 breast
[5] = test system: CAKI-1 renal
[6] = test system: CCRF-CEM leukemia
[7] = test system: COLO 205 colon
[8] = test system: DU-145 prostate
[9] = test system: EKVX NSCLC
[10] = test system: HCT-116 colon
[11] = test system: HCT-15 colon
[12] = test system: HL-60(TB) leukemia
[13] = test system: HOP-62 NSCLC
[14] = test system: HS 578T breast
[15] = test system: HT29 colon
[16] = test system: IGROV1 ovarian
[17] = test system: K-562 leukemia
[18] = test system: KM12 colon
[19] = test system: LOX IMVI melanoma
[20] = test system: M14 melanoma
[21] = test system: MALME-3M melanoma
[22] = test system: MCF7 breast
[23] = test system: MDA-MB-231 breast
[24] = test system: MDA-MB-435
[25] = test system: MDA-N
[26] = test system: MOLT-4 leukemia
[27] = test system: NCI-H226 lung
[28] = test system: NCI-H460 lung
[29] = test system: NCI-H522 lung
[30] = test system: NCI/ADR-RES ovarian
[31] = test system: OVCAR-3 ovarian
[32] = test system: OVCAR-4 ovarian
[33] = test system: OVCAR-5 ovarian
[34] = test system: OVCAR-8 ovarian
[35] = test system: PC-3 prostate
[36] = test system: RPMI-8226 leukemia
[37] = test system: RXF 393 renal
[38] = test system: SF-268 CNS
[39] = test system: SF-295 CNS
[40] = test system: SF-539 CNS
[41] = test system: SK-MEL-2 melanoma
[42] = test system: SK-MEL-28 melanoma
[43] = test system: SK-MEL-5 melanoma
[44] = test system: SK-OV-3 ovarian
[45] = test system: SN12C renal
[46] = test system: SNB-19 CNS
[47] = test system: SNB-75 CNS
[48] = test system: SR leukemia
[49] = test system: SW-620 colon
[50] = test system: T-47D breast
[51] = test system: TK-10 renal
[52] = test system: U251 CNS
[53] = test system: UACC-257 melanoma
[54] = test system: UACC-62 melanoma
[55] = test system: UO-31 renal

O=C(NNC(=O)c1ccccc1O)c1cccs1
TGI [1]: > 100 µM | TGI [2]: > 100 µM | TGI [3]: > 100 µM | TGI [4]: > 100 µM | TGI [5]: > 100 µM | TGI [6]: > 100 µM | TGI [7]: > 100 µM | TGI [8]: > 100 µM | TGI [9]: > 100 µM | TGI [10]: > 100 µM | TGI [11]: > 100 µM | TGI [12]: > 100 µM | TGI [13]: > 100 µM | TGI [14]: > 100 µM | TGI [15]: > 100 µM | TGI [16]: > 100 µM | TGI [17]: > 100 µM | TGI [18]: > 100 µM | TGI [19]: > 100 µM | TGI [20]: > 100 µM | TGI [21]: > 100 µM | TGI [22]: > 100 µM | TGI [23]: > 100 µM | TGI [24]: > 100 µM | TGI [25]: > 100 µM | TGI [26]: > 100 µM | TGI [27]: > 100 µM | TGI [28]: > 100 µM | TGI [29]: 64 µM | TGI [30]: > 100 µM | TGI [31]: > 100 µM | TGI [32]: > 100 µM | TGI [33]: > 100 µM | TGI [34]: > 100 µM | TGI [35]: > 100 µM | TGI [36]: > 100 µM | TGI [37]: > 100 µM | TGI [38]: > 100 µM | TGI [39]: > 100 µM | TGI [40]: > 100 µM | TGI [41]: > 100 µM | TGI [42]: > 100 µM | TGI [43]: > 100 µM | TGI [44]: > 100 µM | TGI [45]: > 100 µM | TGI [46]: > 100 µM | TGI [47]: > 100 µM | TGI [48]: > 100 µM | TGI [49]: > 100 µM | TGI [50]: > 100 µM | TGI [51]: > 100 µM | TGI [52]: > 100 µM | TGI [53]: > 100 µM | TGI [54]: > 100 µM | TGI [55]: > 100 µM
